The results in this text go back to patent publication US11414406B2, “Antagonists of the muscarinic acetylcholine receptor M4” (Vanderbilt University, priority 2018, dated 2022).

In this experiment the target is T1, Human M4 (Homo sapiens, UniProt P08173).
T1 construct: expressed in transfected cells
T1 sequence (P08173 1-479): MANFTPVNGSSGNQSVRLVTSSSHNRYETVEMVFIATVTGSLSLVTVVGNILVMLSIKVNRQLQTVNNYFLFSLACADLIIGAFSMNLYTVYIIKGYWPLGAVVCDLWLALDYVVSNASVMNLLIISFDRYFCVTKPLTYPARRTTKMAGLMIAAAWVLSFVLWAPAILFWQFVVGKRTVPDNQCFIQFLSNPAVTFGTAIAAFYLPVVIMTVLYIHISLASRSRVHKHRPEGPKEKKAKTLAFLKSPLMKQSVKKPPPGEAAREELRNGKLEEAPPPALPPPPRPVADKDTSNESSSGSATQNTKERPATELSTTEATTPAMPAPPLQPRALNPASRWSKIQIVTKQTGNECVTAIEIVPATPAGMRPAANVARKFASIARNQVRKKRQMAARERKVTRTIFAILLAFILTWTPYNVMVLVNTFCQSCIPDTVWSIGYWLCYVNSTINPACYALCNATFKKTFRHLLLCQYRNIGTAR
Nature of the experiment: mAChR M4 cell-based functional assay (calcium flux, decrease of EC80 acetylcholine response). The note with it: for IC50: decrease of response to EC80 acetylcholine. How it is done:
Human M4 cDNA, along with the chimeric G protein Gqi5, were transfected into Chinese hamster ovary (CHO-K1) cells purchased from the American Type Culture Collection using Lipofectamine2000. M4/Gqi5/CHO cells were grown in Ham's F-12 medium containing 10% heat-inactivated fetal bovine serum (FBS), 20 mM HEPES, 500 μg/mL G418 sulfate, and 200 μg/mL Hygromycin B.
For high throughput measurement of agonist-evoked increases in intracellular calcium, CHO-K1 cells stably expressing muscarinic receptors were plated in growth medium lacking G418 and hygromycin at 15,000 cells/20 μL/well in Greiner 384-well black-walled, tissue culture (TC)-treated, clear-bottom plates (VWR). Cells were incubated overnight at 37° C. and 5% CO2. The next day, cells were washed using an ELX 405 (BioTek) with assay buffer; the final volume was then aspirated to 20 μL. Next, 20 μL of a 2.3 μM stock of Fluo-4/acetoxymethyl ester (Invitrogen, Carlsbad, Calif.), prepared as a 2.3 mM stock in DMSO and mixed in a 1:1 ratio with 10% (w/v) Pluronic F-127 and diluted in assay buffer, was added to the wells and the cell plates were incubated for 50 min at 37° C. and 5% CO2. Dye was removed by washing with the ELX 405 and the final volume was aspirated to 20 μL. Compound master plates were formatted in a 10 point concentration-response curve (CRC) format (1:3 dilutions) in 100% DMSO with a starting concentration of 10 or 1 mM using a BRAVO liquid handler (Agilent). Test compound CRCs were then transferred to daughter plates (240 nL) using the Echo acoustic plate reformatter (Labcyte, Sunnyvale, Calif.) and then diluted into assay buffer (40 μL) to a 2× stock using a Thermo Fisher Combi (Thermo Fisher Scientific, Waltham, Mass.).
Calcium flux was measured using the Functional Drug Screening System (FDSS) 6000 or 7000 (Hamamatsu Corporation, Tokyo, Japan) as an increase in the fluorescent static ratio. Compounds were applied to cells (20 μL, 2×) using the automated system of the FDSS at 2 seconds into the protocol and the data were collected at 1 Hz. At 143 s, 10 μL of an EC20 concentration of the muscarinic receptor agonist acetylcholine was added (5×), followed by the addition of 12 μL of an EC80 concentration of acetylcholine at the 268 s time point (5×). Agonist activity was analyzed as a concentration-dependent increase in calcium mobilization upon compound addition. Positive allosteric modulator activity was analyzed as a concentration-dependent increase in the EC20 acetylcholine response. Antagonist activity was analyzed as a concentration-dependent decrease in the EC80 acetylcholine response; for the purposes of the tables herein, an IC50 (inhibitory concentration 50) was calculated as a concentration-dependent decrease of the response elicited by an EC80 concentration of acetylcholine. Concentration-response curves were generated using a four-parameter logistical equation in XLFit curve fitting software (HMS, Bridgewater, N.J.) for Excel (Microsoft, Redmond, Wash.) or Prism (GraphPad Software, Inc., San Diego, Calif.) or the Dotmatics software platform (Dotmatics, Bishop's Stortford, UK).
Compounds were synthesized as described above. Activity (IC50 and Emin) was determined in the inAChR M4 cell-based functional assay as described above and the data are shown in Table 2. The compound numbers correspond to the compound numbers used in Examples 1 and 2 and Tables 1 and 2.
A general note: Calcium flux is commonly read through the fluorescence of an indicator in the cells.

Setting [1] is: CHO-K1, read-out: Emin (% ACh maximum at 30 μM).
Setting [2] is: M4/Gqi5/CHO-K1 cells, % ACh maximum at 30 μM, read-out: Emin (% ACh maximum at 30 μM).

Read-outs that look alike come from different tables or passages of the source.

One may read the IC50 as the concentration needed to halve the response being measured. On to `Cc1nn(C)cc1-c1ccc(N[C@H]2[C@@H]3CN(CCC(C)(C)C)C[C@@H]32)nn1` [Compound 1, (1R,5S,6s)-3-(3,3-dimethylbutyl)-N-[6-(1,3-dimethylpyrazol-4-yl)pyridazin-3-yl]-3-azabicyclo[3.1.0]hexan-6-amine], for which the remaining activity at 30 µM under setting [1] came to 4.8%. In addition, where the note is “M4/Gqi5/CHO-K1 cells”, the IC50 is 280 nM.
In the case of `Cc1nn(C)cc1-c1ccc(N[C@H]2[C@@H]3CN(CC4CC5C=CC4C5)C[C@@H]32)nn1` (stereo partly drawn) [Compound 2, (1R,5S,6s)-3-(5-bicyclo[2.2.1]hept-2-enylmethyl)-N-[6-(1,3-dimethylpyrazol-4-yl)pyridazin-3-yl]-3-azabicyclo[3.1.0]hexan-6-amine], the remaining activity at 30 µM under setting [2] is 5%. Also, for the setting “M4/Gqi5/CHO-K1 cells”, the IC50 came out at 100 nM.
`Cc1nn(C)cc1-c1ccc(N[C@H]2[C@@H]3CN(CC(C)C(C)(C)C)C[C@@H]32)nn1` (stereo partly drawn) [Compound 3, (1R,5S,6s)-N-[6-(1,3-dimethylpyrazol-4-yl)pyridazin-3-yl]-3-(2,3,3-trimethylbutyl)-3-azabicyclo[3.1.0]hexan-6-amme]: the remaining activity at 30 µM under setting [2] was 24%.
`Cc1nn(C)cc1-c1ccc(CN[C@H]2[C@@H]3CN(CCC(C)(C)C)C[C@@H]32)nn1` [Compound 4, (1R,5S,6s)-N-((6-(1,3-dimethyl-1H-pyrazol-4-yl)pyridazin-3-yl)methyl)-3-(3,3-dimethylbutyl)-3-azabicyclo[3.1.0]hexan-6-amine]: the remaining activity at 30 µM under setting [1] was determined as 36.7%.
As to `CC(C)(C)CCN1C[C@@H]2[C@H](C1)[C@H]2NCc1ccc(-c2cc(F)ccc2Cl)nn1` [Compound 5, (1R,5S,6s)-N-((6-(2-chloro-5-fluoro-phenyl)pyridazin-3-yl)methyl)-3-(3,3-dimethylbutyl)-3-azabicyclo[3.1.0]hexan-6-amine], the remaining activity at 30 µM under setting [2] was 20.4%.
Turning to `Fc1ccc(Cl)c(-c2ccc(CN[C@H]3[C@@H]4CN(CC5CCCCC5)C[C@@H]43)nn2)c1` [Compound 6, (1R,5S,6s)-N-((6-(2-chloro-5-fluoro-phenyl)pyridazin-3-yl)methyl)-3-(cyclohexylmethyl)-3-azabicyclo[3.1.0]hexan-6-amine], the remaining activity at 30 µM under setting [2] came to 17.8%.
For `Cc1nn(C)cc1-c1ccc(CN[C@H]2[C@@H]3CN(CC4CCCCC4)C[C@@H]32)nn1` [Compound 7, (1R,5S,6s)-3-(cyclohexylmethyl)-N-((6-(1,3-dimethylpyrazol-4-yl)pyridazin-3-yl)methyl)-3-azabicyclo[3.1.0]hexan-6-amine], under setting [2], the remaining activity at 30 µM stood at 32.5%.
As for `Fc1ccccc1-c1ccc(N[C@H]2[C@@H]3CN(CC4CCOCC4)C[C@@H]32)nn1` [Compound 8, (1R,5S,6s)-N-[6-(2-fluorophenyl)pyridazin-3-yl]-3-(tetrahydropyran-4-ylmethyl)-3-azabicyclo[3.1.0]hexan-6-amine], the remaining activity at 30 µM under setting [2] was 38%.
Regarding `Fc1cccc(-c2ccc(N[C@H]3[C@@H]4CN(CC5CCOCC5)C[C@@H]43)nn2)c1` [Compound 9, (1R,5S,6s)-N-[6-(3-fluorophenyl)pyridazin-3-yl]-3-(tetrahydropyran-4-ylmethyl)-3-azabicyclo[3.1.0]hexan-6-amine], under setting [2], the remaining activity at 30 µM turned out to be 25%.
Consider `Fc1ccc(-c2ccc(N[C@H]3[C@@H]4CN(CC5CCOCC5)C[C@@H]43)nn2)cc1` [Compound 10, (1R,5S,6s)-N-[6-(4-fluorophenyl)pyridazin-3-yl]-3-(tetrahydropyran-4-ylmethyl)-3-azabicyclo[3.1.0]hexan-6-amine], for which, under setting [2], the remaining activity at 30 µM was determined as 37%.
`Clc1ccccc1-c1ccc(N[C@H]2[C@@H]3CN(CC4CCOCC4)C[C@@H]32)nn1` [Compound 11, (1S,5R,6s)-N-[6-(2-chlorophenyl)pyridazin-3-yl]-3-(tetrahydropyran-4-ylmethyl)-3-azabicyclo[3.1.0]hexan-6-amine]: under setting [2], the remaining activity at 30 µM was 11%. The IC50 (M4/Gqi5/CHO-K1 cells) is 2960 nM.
Consider `Fc1ccc(Cl)c(-c2ccc(N[C@H]3[C@@H]4CN(CC5CCOCC5)C[C@@H]43)nn2)c1` [Compound 12, (1R,5S,6s)-N-[6-(2-chloro-5-fluoro-phenyl)pyridazin-3-yl]-3-(tetrahydropyran-4-ylmethyl)-3-azabicyclo[3.1.0]hexan-6-amine], for which the remaining activity at 30 µM under setting [2] turned out to be 8%. The IC50 (M4/Gqi5/CHO-K1 cells) was 1110 nM.
Consider `Fc1cccc(-c2ccc(N[C@H]3[C@@H]4CN(CC5CCOCC5)C[C@@H]43)nn2)c1Cl` [Compound 13, (1R,5S,6s)-N-[6-(2-chloro-3-fluoro-phenyl)pyridazin-3-yl]-3-(tetrahydropyran-4-ylmethyl)-3-azabicyclo[3.1.0]hexan-6-amine], for which, under setting [2], the remaining activity at 30 µM was found to be 8%. Under “M4/Gqi5/CHO-K1 cells”, the IC50 worked out at 1850 nM.
Regarding `Fc1ccc(-c2ccc(N[C@H]3[C@@H]4CN(CC5CCOCC5)C[C@@H]43)nn2)c(Cl)c1` [Compound 14, (1R,5S,6s)-N-[6-(2-chloro-4-fluoro-phenyl)pyridazin-3-yl]-3-(tetrahydropyran-4-ylmethyl)-3-azabicyclo[3.1.0]hexan-6-amine], the remaining activity at 30 µM under setting [2] turned out to be 12%.
Regarding `Fc1cccc(Cl)c1-c1ccc(N[C@H]2[C@@H]3CN(CC4CCOCC4)C[C@@H]32)nn1` [Compound 15, (1R,5S,6s)-N-[6-(2-chloro-6-fluoro-phenyl)pyridazin-3-yl]-3-(tetrahydropyran-4-ylmethyl)-3-azabicyclo[3.1.0]hexan-6-amine], the remaining activity at 30 µM under setting [2] is 14%. The IC50 (M4/Gqi5/CHO-K1 cells) was 3180 nM.
With `Fc1ccc(F)c(-c2ccc(N[C@H]3[C@@H]4CN(CC5CCOCC5)C[C@@H]43)nn2)c1` [Compound 16, (1R,5S,6s)-N-[6-(2,5-difluorophenyl)pyridazin-3-yl]-3-(tetrahydropyran-4-ylmethyl)-3-azabicyclo[3.1.0]hexan-6-amine], the remaining activity at 30 µM under setting [2] came out at 28%.
For the compound `c1cnc2ccc(-c3ccc(N[C@H]4[C@@H]5CN(CC6CCOCC6)C[C@@H]54)nn3)cc2c1` [Compound 17, (1R,5S,6s)-N-[6-(6-quinolyl)pyridazin-3-yl]-3-(tetrahydropyran-4-ylmethyl)-3-azabicyclo[3.1.0]hexan-6-amine], under setting [2], the remaining activity at 30 µM stood at 13%. Besides, where the note is “M4/Gqi5/CHO-K1 cells”, the IC50 was 3760 nM.
Take `Cn1cc2cc(-c3ccc(N[C@H]4[C@@H]5CN(CC6CCOCC6)C[C@@H]54)nn3)ccc2n1` [Compound 18, (1R,5S,6s)-N-[6-(2-methylindazol-5-yl)pyridazin-3-yl]-3-(tetrahydropyran-4-ylmethyl)-3-azabicyclo[3.1.0]hexan-6-amine]: the remaining activity at 30 µM under setting [2] was 27%.
Consider `CC(=O)Nc1ccc(-c2ccc(N[C@H]3[C@@H]4CN(CC5CCOCC5)C[C@@H]43)nn2)cc1` [Compound 19, N-[4-[6-[[(1R,5S,6s)-3-(tetrahydropyran-4-ylmethyl)-3-azabicyclo[3.1.0]hexan-6-yl]amino]pyridazin-3-yl]phenyl]acetamide], for which the remaining activity at 30 µM under setting [2] amounted to 39%.
